Drawing on ChEMBL document CHEMBL1201862, “PubChem BioAssay data set” (2004), this text covers IC50, AC50 and EC50 for three compounds.

Each structure is given as a SMILES string. Activity calls are given as the source filed them. A value given as a limit tells only on which side of the number the result lay.

In one assay the target is Beta-lactamase (Pseudomonas aeruginosa, UniProt Q79MP6).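 Note: biochemical dose-response test of metallo-beta-lactamase enzyme inhibition, read out by epi-absorbance; purified recombinant IMP-1 metallo-beta-lactamase with nitrocefin as substrate.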
Another assay relates to HeLa. The assay is described as follows: HeLa cell cytotoxicity, dose response, cytotoxicity control, 24 h, cherry-picked samples (AID 504726).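 Note: potency for cytotoxicity as loss of luminescence signal.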 In kind it is functional, cell-based. The note with it: Homo sapiens.
The target in assay [1] is UDP-galactopyranose mutase (Mycobacterium tuberculosis, UniProt P9WIQ1). Nature of the assay: Inhibitors of Mycobacterium tuberculosis UDP-galactopyranose mutase (UGM) enzyme Measured in Biochemical System Using Plate Reader - 2105-02_Inhibitor_Dose_CherryPick_Activity. [Related pubchem assays (depositor defined):AID504439].
Another assay has as its target T1, Insulin-degrading enzyme (Homo sapiens, UniProt P14735).
T1 sequence (P14735 whole entry): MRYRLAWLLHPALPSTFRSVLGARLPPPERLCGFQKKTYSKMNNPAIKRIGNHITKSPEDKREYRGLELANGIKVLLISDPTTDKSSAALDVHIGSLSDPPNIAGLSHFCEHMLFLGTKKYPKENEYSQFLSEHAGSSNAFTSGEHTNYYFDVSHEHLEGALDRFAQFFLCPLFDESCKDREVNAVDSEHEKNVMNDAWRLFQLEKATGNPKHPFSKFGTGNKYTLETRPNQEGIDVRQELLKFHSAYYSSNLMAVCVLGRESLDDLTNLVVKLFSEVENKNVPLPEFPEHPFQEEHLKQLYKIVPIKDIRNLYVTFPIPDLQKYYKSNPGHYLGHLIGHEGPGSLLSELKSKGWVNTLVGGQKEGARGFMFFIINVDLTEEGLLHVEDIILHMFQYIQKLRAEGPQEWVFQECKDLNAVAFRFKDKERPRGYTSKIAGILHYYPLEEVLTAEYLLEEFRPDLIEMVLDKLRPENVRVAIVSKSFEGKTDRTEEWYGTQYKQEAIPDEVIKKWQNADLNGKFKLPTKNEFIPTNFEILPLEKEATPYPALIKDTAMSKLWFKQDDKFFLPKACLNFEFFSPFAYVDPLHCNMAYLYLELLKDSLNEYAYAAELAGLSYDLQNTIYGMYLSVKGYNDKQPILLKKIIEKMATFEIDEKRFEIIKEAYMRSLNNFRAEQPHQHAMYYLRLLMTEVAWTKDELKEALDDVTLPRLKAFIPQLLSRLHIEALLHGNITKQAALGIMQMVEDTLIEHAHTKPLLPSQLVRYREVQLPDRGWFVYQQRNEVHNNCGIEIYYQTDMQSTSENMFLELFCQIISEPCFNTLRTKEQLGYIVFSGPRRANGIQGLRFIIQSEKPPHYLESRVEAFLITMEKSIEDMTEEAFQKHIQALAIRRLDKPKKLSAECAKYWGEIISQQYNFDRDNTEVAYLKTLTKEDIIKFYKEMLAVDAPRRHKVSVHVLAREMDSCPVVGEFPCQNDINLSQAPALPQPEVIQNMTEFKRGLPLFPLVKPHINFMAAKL
Nature of the assay: activators of recombinant IDE enzyme, dose response, counter-screen for IDE activator project, biochemical, fluorescence polarization (AID 588681).

Assay [2] is described as follows: inhibitors of SNCA 5'UTR-driven reporter translation, confirmation, H4 neuroglioma cells, luminescence (AID 1988). In kind it is functional, cell-based.
The nature of assay [3]: C. albicans growth with fluconazole, confirmation, fluorescence, retest (AID 2467). Format: functional, cell-based.
Assay [4] can be described thus: inhibitors of intracellular T. cruzi replication, confirmation, NIH3T3 host cells, beta-gal luminescence (AID 2044).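 Note: intracellular parasites grown in NIH/3T3 mouse fibroblasts as host cells; luminescent beta-galactosidase reporter signal from transgenic T. cruzi replicating inside host cells; inhibitors lower the luminescence signal.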 In kind it is functional, cell-based.
Assay [5] can be described thus: cytotoxicity in HEK-293T cells, dose response, cytotoxicity control for TCR NF-kB inhibitor project, luminescence, T-cell screen hits (AID 489026).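 Note: cells exposed to compound about 14 hours before the viability readout.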 In kind it is functional, cell-based.
In assay [6] the target is Heat shock protein HSP 90-alpha (Homo sapiens, UniProt P07900). In kind it is functional, organism-based.
Assay [7] deals with ATP-dependent molecular chaperone HSP82 (Candida albicans (strain WO-1) (Yeast), UniProt C4YTQ8). The assay is described as follows: loss of DOC-induced GRE-beta-galactosidase reporter signal, dose response, Hsp90 inhibitor project, S. cerevisiae, luminescence (AID 2400).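 Note: beta-galactosidase luminescence from glucocorticoid response element reporter as proxy for Hsp90 function; inhibitor potency where signal loss means Hsp90 inhibition.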 In kind it is functional, cell-based.
The nature of assay [8]: miR-122 activators in hepatoma reporter cells, dose response, cell-based, Huh7 psiCHECK-miR122, Renilla luciferase, cherry-picked (AID 651956).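 Note: huh7 hepatoma cells stably carrying a psiCHECK-2 miR-122 sensor plasmid; renilla luciferase signal reporting endogenous miR-122 activity after 48 h compound exposure.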 Format: functional.
For assay [9], the target named is Bifunctional protein GlmU (Mycobacterium tuberculosis, UniProt P9WMN3). Nature of the assay: Inhibitors of Mycobacterial Glucosamine-1-phosphate acetyl transferase (GlmU). Secondary screen. Also on record: species or system Mycobacterium tuberculosis H37Rv.
Assay [10] deals with T2, Apoptotic protease-activating factor 1 (Homo sapiens, UniProt O14727).
T2 sequence (O14727 whole entry): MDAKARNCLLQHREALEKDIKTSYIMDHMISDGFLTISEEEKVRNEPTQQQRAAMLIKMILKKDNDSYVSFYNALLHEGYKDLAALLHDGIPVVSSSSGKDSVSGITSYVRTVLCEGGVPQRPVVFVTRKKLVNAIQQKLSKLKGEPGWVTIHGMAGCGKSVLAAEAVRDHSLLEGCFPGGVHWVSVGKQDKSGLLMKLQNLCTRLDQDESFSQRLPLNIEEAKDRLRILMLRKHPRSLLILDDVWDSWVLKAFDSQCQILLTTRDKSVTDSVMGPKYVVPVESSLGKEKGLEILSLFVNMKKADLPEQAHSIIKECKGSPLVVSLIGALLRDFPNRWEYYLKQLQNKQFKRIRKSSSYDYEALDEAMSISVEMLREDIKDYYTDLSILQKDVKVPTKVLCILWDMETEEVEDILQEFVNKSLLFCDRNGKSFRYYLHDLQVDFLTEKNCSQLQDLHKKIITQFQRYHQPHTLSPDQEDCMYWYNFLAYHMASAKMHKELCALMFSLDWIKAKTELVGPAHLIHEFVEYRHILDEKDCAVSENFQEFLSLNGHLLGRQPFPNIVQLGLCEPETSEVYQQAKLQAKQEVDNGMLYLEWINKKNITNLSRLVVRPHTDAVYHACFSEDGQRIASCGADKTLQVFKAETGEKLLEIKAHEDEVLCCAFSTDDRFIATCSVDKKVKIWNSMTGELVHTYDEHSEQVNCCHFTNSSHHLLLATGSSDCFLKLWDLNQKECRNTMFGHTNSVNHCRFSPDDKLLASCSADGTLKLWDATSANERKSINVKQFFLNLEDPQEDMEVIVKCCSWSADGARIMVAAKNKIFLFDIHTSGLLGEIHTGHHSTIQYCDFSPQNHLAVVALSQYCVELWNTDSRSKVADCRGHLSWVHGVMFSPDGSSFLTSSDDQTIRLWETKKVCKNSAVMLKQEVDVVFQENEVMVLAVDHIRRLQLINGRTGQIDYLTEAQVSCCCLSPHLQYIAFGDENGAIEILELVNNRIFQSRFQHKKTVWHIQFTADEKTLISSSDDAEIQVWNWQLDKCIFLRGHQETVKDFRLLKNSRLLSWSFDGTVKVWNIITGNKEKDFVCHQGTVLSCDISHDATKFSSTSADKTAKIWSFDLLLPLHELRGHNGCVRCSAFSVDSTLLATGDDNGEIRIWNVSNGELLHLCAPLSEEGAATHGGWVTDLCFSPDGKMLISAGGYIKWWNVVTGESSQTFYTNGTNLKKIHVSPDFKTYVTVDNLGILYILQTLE
In kind it is functional.

Bifunctional protein GlmU, sequence (P9WMN3 whole entry): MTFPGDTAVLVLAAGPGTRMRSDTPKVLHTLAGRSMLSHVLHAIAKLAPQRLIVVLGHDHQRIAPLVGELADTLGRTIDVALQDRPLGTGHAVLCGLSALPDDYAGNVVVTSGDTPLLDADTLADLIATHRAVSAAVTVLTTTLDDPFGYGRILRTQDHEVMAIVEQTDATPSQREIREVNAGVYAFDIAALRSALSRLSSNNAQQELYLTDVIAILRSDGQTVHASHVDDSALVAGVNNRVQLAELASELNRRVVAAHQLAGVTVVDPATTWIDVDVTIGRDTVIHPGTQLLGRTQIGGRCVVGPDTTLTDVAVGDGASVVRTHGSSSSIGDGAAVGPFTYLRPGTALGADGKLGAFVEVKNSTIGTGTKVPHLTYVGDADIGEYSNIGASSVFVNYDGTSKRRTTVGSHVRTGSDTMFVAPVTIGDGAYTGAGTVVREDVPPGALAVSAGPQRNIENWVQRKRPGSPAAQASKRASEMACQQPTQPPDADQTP
ATP-dependent molecular chaperone HSP82, sequence (C4YTQ8 whole entry): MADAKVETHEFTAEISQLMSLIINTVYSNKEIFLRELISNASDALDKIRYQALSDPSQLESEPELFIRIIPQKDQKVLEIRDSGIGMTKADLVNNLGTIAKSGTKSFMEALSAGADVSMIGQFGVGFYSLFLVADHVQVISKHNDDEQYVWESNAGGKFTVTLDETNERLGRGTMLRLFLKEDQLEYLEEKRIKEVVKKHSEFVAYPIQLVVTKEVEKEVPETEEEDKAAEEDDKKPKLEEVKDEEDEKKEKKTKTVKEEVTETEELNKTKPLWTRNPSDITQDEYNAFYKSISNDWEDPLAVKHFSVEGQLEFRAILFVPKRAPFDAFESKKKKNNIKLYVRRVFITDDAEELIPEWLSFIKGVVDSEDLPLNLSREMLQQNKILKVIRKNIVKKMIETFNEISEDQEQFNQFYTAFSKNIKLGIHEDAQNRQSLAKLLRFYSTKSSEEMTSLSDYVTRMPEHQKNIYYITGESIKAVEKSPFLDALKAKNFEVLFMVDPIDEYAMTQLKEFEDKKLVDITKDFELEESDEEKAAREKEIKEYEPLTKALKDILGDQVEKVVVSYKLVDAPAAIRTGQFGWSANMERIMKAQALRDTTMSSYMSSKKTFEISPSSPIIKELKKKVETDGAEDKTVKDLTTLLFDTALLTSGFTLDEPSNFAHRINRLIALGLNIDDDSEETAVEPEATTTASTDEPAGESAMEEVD
Beta-lactamase, sequence (Q79MP6 whole entry): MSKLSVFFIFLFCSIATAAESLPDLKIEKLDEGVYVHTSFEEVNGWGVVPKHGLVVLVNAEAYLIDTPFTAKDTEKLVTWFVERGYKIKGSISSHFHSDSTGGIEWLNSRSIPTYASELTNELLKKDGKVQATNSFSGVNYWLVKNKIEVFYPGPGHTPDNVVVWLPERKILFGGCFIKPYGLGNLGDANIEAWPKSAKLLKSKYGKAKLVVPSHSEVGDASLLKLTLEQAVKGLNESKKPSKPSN
UDP-galactopyranose mutase, sequence (P9WIQ1 whole entry): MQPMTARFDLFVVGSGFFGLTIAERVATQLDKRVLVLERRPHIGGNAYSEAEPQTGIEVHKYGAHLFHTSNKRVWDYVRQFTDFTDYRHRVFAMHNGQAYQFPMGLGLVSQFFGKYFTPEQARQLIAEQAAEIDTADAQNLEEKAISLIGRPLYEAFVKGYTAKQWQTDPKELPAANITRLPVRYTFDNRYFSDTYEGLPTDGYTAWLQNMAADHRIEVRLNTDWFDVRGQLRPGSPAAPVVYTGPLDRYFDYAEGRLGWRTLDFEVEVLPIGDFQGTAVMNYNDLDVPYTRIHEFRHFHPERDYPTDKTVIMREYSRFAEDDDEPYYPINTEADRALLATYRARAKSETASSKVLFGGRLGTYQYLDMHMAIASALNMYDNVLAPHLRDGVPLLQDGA

`O=C1CCN2C=Nc3cccc4ccc1c2c34`: the IC50 on Beta-lactamase is 11.8 µM (inactive). Besides, the AC50 was 20.2 µM (active) with HeLa and 2.33 µM (active) in assay [1]. Moreover, the EC50 at Insulin-degrading enzyme is > 54.7 µM (inactive).
Take `Oc1ccc2ccccc2c1/C=N/Nc1nnc(-c2ncc[nH]2)c2ccccc12`: the EC50 is 0.224 µM (active) in assay [2], 0.714 µM (active) in [3], 0.412 µM (active) in assay [4] and 3.23 µM (active) in [7]. In addition, the IC50 in assay [5] was > 80 µM (inactive). The AC50 in assay [6] is 3.53 µM (active); in [8], 37.6 µM (active).
On to `CC(C)C(C(=O)O)N1C(=O)/C(=C/C=C/c2ccco2)SC1=S` (stereo not drawn), for which the IC50 is 47.9 µM (active) in [9] and > 100 µM (inactive) in [10].
